Reference: publication PMC6977399 (Clinical Pharmacology and Therapeutics, 2019)
Like-named read-outs stand apart in the source and are kept apart here.

Legend:
[1] = test system: CYP3A; conditions: in the presence of fluconazole and voriconazole; cited from earlier work
[2] = test system: BCRP and OATP1B; test: Clinical DDI study part 2: effect of fenebrutinib on PK of rosuvastatin; conditions: both, human, plasma, oral
[3] = as above; conditions: both, human, plasma, oral, 20 mg
[4] = test system: OATP1B and BCRP; conditions: clinical DDI study; cited from earlier work
[5] = cited from earlier work
[6] = Literature estimates of intestinal availability; parameters: species or system human; conditions: translated from FaFg 0.28
[7] = both, human, plasma, oral, 2 mg
[8] = test system: CYP3A
[9] = MDZ coadministered with fenebrutinib 200 mg b.i.d. vs MDZ alone
[10] = both, human, plasma, oral, 2 mg

Question: Which “exposure increase in the presence of other CYP3A inhibitors” value [1] does the source give for OCc1ncc2n1-c1ccc(Cl)cc1C(c1ccccc1F)=NC2 [1′‐hydroxymidazolam] here?
Answer: The value was ~ 1.5 fold.

Question: For CC(C)c1nc(N(C)S(C)(=O)=O)nc(-c2ccc(F)cc2)c1/C=C/[C@@H](O)C[C@@H](O)CC(=O)O [Rosuvastatin, rosuvastatin], which half-life [2] is on record?
Answer: The half-life was 18.2 h.

Question: And the AUC(0-t) ([2]; 20 mg)?
Answer: Its AUC(0-t) is 91 ng·h/mL.

Question: What about the AUC(0-inf) [3] of the same compound?
Answer: Its AUC(0-inf) is 93 ng·h/mL.

Question: And the Cmax [3]?
Answer: The Cmax was 9.08 ng/mL.

Question: And the half-life [3]?
Answer: The half-life was 19.9 h.

Question: And the “exposure increase in the presence of eltrombopag” value [4]?
Answer: Its value is 55%.

Question: And the FaFg ([5]; estimated, ref Tanaka et al.23)?
Answer: The FaFg was 0.28.

Question: And the “maximum AUC increase if FaFg increased to 1 with intestinal BCRP inhibition” value [6]?
Answer: Its value is 3.6 fold.

Question: Which results are given for Cc1ncc2n1-c1ccc(Cl)cc1C(c1ccccc1F)=NC2 [MDZ, midazolam]?
Answer: intestinal availability (FaFg) [5]: 48%; Cmax [7]: 8.54 ng/mL; half-life [7]: 6.23 h; AUC0−t, fold higher with fenebrutinib vs alone [8, 9]: ~ 1.99 fold; Cmax, fold higher with fenebrutinib vs alone [8, 9]: ~ 1.74 fold; half-life ([8]; both, human, plasma, oral): 6.68 h; AUC(0-inf) [8, 10]: 20.5 ng·h/mL; AUC(0-t) [8, 10]: 19.2 ng·h/mL
